Reference: patent US9931324B2, “Indolizine derivatives and their use in neurodegenerative diseases” (Merck Patent GmbH, priority 2014, dated 2018)

Columns and labels:
[1] = target: T1, P2X7 (Homo sapiens, UniProt Q99572); assay: Pore permeation assay (YO PRO dye uptake, BzATP-induced); format: cell-based; set-up: expressed in transfected cells; host or cells: HEK293; settings: HEK293 transfected with human P2X7 receptor, BzATP 10 uM, read-out: hP2X7 IC50
T1 sequence (Q99572 1-595): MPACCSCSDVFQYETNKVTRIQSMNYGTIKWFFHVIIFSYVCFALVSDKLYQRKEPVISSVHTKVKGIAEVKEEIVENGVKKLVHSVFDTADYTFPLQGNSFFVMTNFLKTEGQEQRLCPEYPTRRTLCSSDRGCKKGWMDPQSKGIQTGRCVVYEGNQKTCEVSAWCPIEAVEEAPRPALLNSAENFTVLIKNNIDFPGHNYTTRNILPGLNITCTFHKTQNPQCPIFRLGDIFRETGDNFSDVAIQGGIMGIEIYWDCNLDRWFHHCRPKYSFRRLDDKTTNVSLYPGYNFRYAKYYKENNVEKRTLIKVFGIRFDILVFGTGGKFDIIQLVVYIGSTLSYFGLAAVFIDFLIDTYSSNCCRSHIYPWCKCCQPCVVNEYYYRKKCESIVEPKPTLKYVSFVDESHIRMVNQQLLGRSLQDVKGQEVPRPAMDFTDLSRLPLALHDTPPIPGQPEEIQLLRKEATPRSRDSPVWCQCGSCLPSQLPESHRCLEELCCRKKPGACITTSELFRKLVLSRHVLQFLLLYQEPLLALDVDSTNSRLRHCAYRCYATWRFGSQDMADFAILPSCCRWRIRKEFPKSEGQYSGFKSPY
Outline: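 HEK293 cells overexpressing human P2X7 were plated overnight, then placed in low-divalent HEPES buffer pH 7.4 (0.1 mM CaCl2, 125 mM NaCl). Compounds (10 points from 2.5 μM) were preincubated for 20 min at room temperature. YO-PRO (1 μM) was added with BzATP (10 μM), and dye uptake was read by fluorescence after 30 min.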

[2] = target: T1, P2X7; assay: IL-1β release assay in THP-1 cells (sandwich ELISA, BzATP-stimulated); format: cell-based; set-up: endogenous in cells; host or cells: THP-1 cells (PMA-differentiated, LPS-primed); settings: LPS primed, 0.8 mM BzATP, mature IL-1β release, read-out: hTHP-1/IL-ib IC50

Row | IC50 [1] | IC50 [2] | Compound
1 | 10 to 100 nM | 10 to 100 nM | O=C(NCC1CCC(F)(F)CC1)c1cc(C2CCOC2)n2cccc(Cl)c12 (stereo not shown) [Compound 40, 8-chloro-N-((4,4-difluorocyclohexyl)methyl)-3-(tetrahydro-furan-3-yl)indolizine-1-carboxamide]
2 | 101 to 500 nM | 101 to 500 nM | O=C(NCC1CCC(F)(F)CC1)c1cc(C2=CCOC2)n2cccc(Cl)c12 [Compound 21, 8-chloro-N-((4,4-difluorocyclohexyl)methyl)-3-(2,5-dihydrofuran-3-yl) indolizine-1-carboxamide]
3 | 101 to 500 nM | 10 to 100 nM | COCCc1cc(C(=O)NCC2(O)CCCC(F)(F)C2)c2c(C(F)(F)F)cccn12 (stereo not shown) [Compound 60, 3-(2-Methoxy-ethyl)-8-trifluoro methylindolizine-1-carboxylic Acid (3,3-difluoro-1-hydroxy-cyclohexylmethyl)-amide]
4 | 10 to 100 nM | 10 to 100 nM | COCCc1cc(C(=O)NC[C@@]2(O)CCC[C@@H](C)C2)c2c(C(F)(F)F)cccn12 [Compound 22, 3-(2-Methoxy-ethyl)-8-trifluoromethyl-indolizine-1-carboxylic Acid ((1R,3R)-1-hydroxy-3-methyl-cyclohexylmethyl)-amide]
5 | < 10 nM | 10 to 100 nM | COCCc1cc(C(=O)NCC2(O)CCCC(F)(F)C2)c2c(Cl)cccn12 (stereo not shown) [Compound 62, 8-Chloro-3-(2-methoxy-ethyl)-indolizine-1-carboxylic Acid (3,3-difluoro-1-hydroxycyclohexylmethyl)-amide]

The remaining lines, values behind:

Row | Compound | IC50 [1] | IC50 [2]
6 | O=C(NCC1CCCC(F)(F)C1)c1cc(C2CCCO2)n2cccc(Cl)c12 (stereo not shown) [Compound 17, 8-Chloro-3-(tetrahydro-furan-2-yl)-indolizine-1-carboxylic Acid (3,3-difluoro-cyclohexylmethyl)-amide] | < 10 nM | 10 to 100 nM
7 | (R)-8-chloro-N-((4,4-difluoro-1-hydroxycyclohexyl)methyl)-3-((tetrahydrofuran-3-yl)methyl)indolizine-1-carboxamide [Compound 50] | 10 to 100 nM | 101 to 500 nM
8 | O=C(NCC1(O)CCC(F)(F)CC1)c1cc(C2CCOC2)n2cccc(Cl)c12 (stereo not shown) [Compound 61, 8-chloro-N-((4,4-difluoro-1-hydroxycyclohexyl)methyl)-3-(tetrahydrofuran-3-yl)indolizine-1-carboxamide] | 10 to 100 nM | 10 to 100 nM
